The source of these data is paper PMC6136390, “Coptisine-induced inhibition of Helicobacter pylori: elucidation of specific mechanisms by probing urease active site and its maturation process” (Journal of Enzyme Inhibition and Medicinal Chemistry, 2018).

Where two headings read alike, the source gives them in different places.

For assay [1], the target named is T1, jack bean urease (JBU) (Canavalia ensiformis, UniProt P07374).
T1 construct: purchased Sigma Aldrich (Steineheim, Germany) type III (catalogue number not given)
T1 sequence (P07374 whole entry, looked up): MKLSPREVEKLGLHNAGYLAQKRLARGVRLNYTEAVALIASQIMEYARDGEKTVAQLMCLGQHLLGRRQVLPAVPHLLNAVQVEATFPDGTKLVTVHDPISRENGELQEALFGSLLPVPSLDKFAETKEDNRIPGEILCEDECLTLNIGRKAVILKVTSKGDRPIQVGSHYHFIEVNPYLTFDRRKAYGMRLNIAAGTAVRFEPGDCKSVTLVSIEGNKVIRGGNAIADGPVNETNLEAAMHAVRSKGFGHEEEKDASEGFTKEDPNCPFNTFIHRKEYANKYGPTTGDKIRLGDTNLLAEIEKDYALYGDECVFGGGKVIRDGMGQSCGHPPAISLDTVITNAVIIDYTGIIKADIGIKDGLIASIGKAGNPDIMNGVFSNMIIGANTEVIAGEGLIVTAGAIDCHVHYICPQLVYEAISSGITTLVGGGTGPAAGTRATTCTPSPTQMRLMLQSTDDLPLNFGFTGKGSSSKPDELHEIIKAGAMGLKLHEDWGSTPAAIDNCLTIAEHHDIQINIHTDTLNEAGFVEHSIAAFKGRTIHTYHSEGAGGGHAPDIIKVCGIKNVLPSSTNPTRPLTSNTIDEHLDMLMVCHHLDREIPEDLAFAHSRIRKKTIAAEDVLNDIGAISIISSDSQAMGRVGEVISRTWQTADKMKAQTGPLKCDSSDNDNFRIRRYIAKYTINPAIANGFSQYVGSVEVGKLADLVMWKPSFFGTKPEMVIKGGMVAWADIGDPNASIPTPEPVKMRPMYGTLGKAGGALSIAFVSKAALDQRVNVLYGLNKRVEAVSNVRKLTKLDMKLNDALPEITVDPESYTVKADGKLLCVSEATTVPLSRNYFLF
The experiment in a line: Progress curve analysis. Format: biochemical. The settings on record: 0.63, 1.25 and 2.50 mM Cop, non-pre-incubated and pre-incubated systems. On the procedure: (§1) Reaction progress curves for urea hydrolysis in the non-pre-incubated and pre-incubated systems were generated by plotting the concentration of ammonia generated as a function of the incubation time P(t) in the absence or presence of coptisine. Coptisine and urease were mixed immediately before the reaction in the non-pre-incubated system and were mixed and incubated for 20 min before urea was added to initiate the reaction in the pre-incubated system. Urease activity relative to the standard assay was determined at different time intervals.

The target in assay [2] is T2, H. pylori urease (HPU) (Helicobacter pylori, UniProt P69996).
T2 construct: Crude HPU was obtained according to the method described by Matsubara et al; endogenous in cells; host or cells: cultured Helicobacter pylori (strain not specified)
T2 sequence (P69996 whole entry): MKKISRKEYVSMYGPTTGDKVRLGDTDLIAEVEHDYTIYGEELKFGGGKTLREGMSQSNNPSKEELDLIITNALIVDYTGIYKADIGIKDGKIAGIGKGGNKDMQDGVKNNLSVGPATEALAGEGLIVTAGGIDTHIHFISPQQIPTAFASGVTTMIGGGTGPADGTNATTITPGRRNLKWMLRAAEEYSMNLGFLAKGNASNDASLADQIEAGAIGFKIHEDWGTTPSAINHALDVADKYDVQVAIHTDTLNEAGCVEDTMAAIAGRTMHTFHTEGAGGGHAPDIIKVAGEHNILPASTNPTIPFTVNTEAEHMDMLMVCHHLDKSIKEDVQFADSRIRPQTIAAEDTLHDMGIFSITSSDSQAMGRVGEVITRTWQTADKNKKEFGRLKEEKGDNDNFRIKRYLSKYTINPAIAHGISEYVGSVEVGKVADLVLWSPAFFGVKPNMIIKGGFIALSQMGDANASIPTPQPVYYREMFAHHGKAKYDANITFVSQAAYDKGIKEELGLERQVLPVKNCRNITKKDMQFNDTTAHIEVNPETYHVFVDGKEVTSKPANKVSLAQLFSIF
T2 sequence (P14916 whole entry, further chain): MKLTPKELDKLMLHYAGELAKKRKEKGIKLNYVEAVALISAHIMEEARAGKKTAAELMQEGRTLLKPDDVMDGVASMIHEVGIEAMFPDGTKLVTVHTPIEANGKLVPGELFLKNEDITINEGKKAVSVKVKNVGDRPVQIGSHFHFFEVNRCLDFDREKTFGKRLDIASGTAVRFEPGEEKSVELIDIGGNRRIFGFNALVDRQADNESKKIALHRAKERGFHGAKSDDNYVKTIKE
The assay can be described thus: Progress curve analysis. Format: biochemical. The following applies: 0.63, 1.25 and 2.50 mM Cop, non-pre-incubated and pre-incubated systems. As for the experimental part:
as §1

For assay [3], the target named is T1, jack bean urease (JBU). The assay can be described thus: Determination of urease inhibition type (Lineweaver-Burk plots). Format: biochemical. On the procedure:
(§2) Using the methods described above, the type of enzyme inhibition induced by coptisine was determined by examining changes in the Michaelis constant (KM) and maximum velocity (vmax) values from Lineweaver–Burk plots of 1/v versus 1/urea. The inhibition constant was determined using secondary plots of the apparent KM/vmax or 1/vmax versus the concentration of coptisine. The assays were performed in triplicate.

In assay [4] the target is T2, H. pylori urease (HPU). The description is as above. Format: biochemical. As for the experimental part:
as §2

Assay [5] deals with T2, H. pylori urease (HPU). The assay can be described thus: Urease inhibition assay in vitro (modified Berthelot method). Format: biochemical. On the procedure:
All strains were cultured in Columbia agar base containing 7% sheep blood at 37 °C in a micro-aerophilic environment (5% O2, 10% CO2, and 85% N2). After 3 days, H. pylori was scraped and suspended in phosphate buffered saline (PBS). Turbidimetry was employed to adjust the concentrations of different H. pylori strains (turbidity equivalent to 1.0 McFarland standard). Crude HPU was obtained according to the method described by Matsubara et al.[42]
This assay was performed using the modified Berthelot method (phenol-hypochlorite) in 96 well plates. At the beginning of each reaction, different concentrations of urease solution and 150 mM urea as a substrate were mixed in 20 mM HEPES buffer (pH 7.5) at 37 °C. After a 20-min reaction, urease activity was tested by measuring the concentration of ammonia produced by the reaction at 595 nm using the microplate reader (Thermo Fisher Multiskan FC, Instruments, Inc., USA) at ambient temperature. […] One unit (U) of urease activity was defined as the amount of urease required to catalyse 1 μmol urea per min. […]
Coptisine’s ability to inhibit urease activity was determined by measuring amounts of ammonia produced using the modified Berthelot method described above. […] Residual activity (RA %) for each assay was calculated using the following equation: RA % = (activity with inhibitors/activity without inhibitors) × 100%. […]

Assay [6] relates to H. pylori cells (SS1). The experiment in a line: pH shock experiment in vivo (urea-dependent survival of H. pylori). Format: cell-based, Helicobacter pylori. The following applies: for surviving bacteria, pH =1: 100 mM HCl pH 1, 5 mM urea; for surviving bacteria, pH =1 / surviving bacteria, pH =7.2: 30 min; for surviving bacteria, pH =7.2: PBS pH 7.2, 5 mM urea; for inhibition at 50 µM / inhibition at 100 µM / inhibition at 200 µM: Helicobacter pylori, 0.5 h. As for the experimental part:
H. pylori cells (SS1) were harvested, and the concentration was adjusted to Mc = 4 with saline. Then, bacterial samples were mixed with AHA (positive control, 5 mM) or one of the five alkaloids from Rhizoma Coptidis (coptisine, berberine, jatrorrhizine, epiberberine, and palmatine) in 100 mM HCl (pH = 1) or PBS (pH = 7.2) at 37 °C with or without 5 mM urea. After 30 min of incubation, bacteria were collected by centrifugation at 2000g for 10 min and resuspended in the same volume of PBS. A dilution series (1:1–1:10000) was made from the samples, and the dilutions were plated on solid agar for 5 days to form single colony. Samples from urea-free wells were used as controls. Results are expressed as CFU/mL; the experiment was repeated in triplicate. Inhibition rate was calculated using the following equation: Inhibition rate = (Urea group bacterial mean − X group bacterial mean)/Urea group bacterial mean ×100%, where X represents each experimental group.

Where [7] appears, read: Lineweaver-Burk plots, 1.00, 2.00 or 4.00 mM Cop.
[8] abbreviates: pH 1, read-out: Inhibition rate, pH =1.
[9] abbreviates: pH 7.2, read-out: Inhibition rate, pH =7.2.

Consider `c1c2c(cc3c1OCO3)-c1cc3ccc4c(c3c[n+]1CC2)OCO4` [Coptisine], for which the “binding behaviour from reaction progress curves, JBU” value in assay [1] is “slow-binding inhibition”. Moreover, the “binding behaviour from reaction progress curves, HPU” value in assay [2] is reported as “slow-binding inhibition”. Further, the Ki is 170 µM in assay [3] and 50 µM in assay [4]. Also, in assay [3] (setting [7]), the “inhibition type, JBU” value is recorded as “non-competitively inhibits”. Moreover, the “Kis, JBU” value in assay [3] (from intercept versus Cop concentration) is 0.25 mM. Besides, the “inhibition type, HPU” value in assay [4] (setting [7]) is “mixed-type inhibitor”. Moreover, in assay [4] (from vertical intercept versus inhibitor concentration), the “Kis (binding to the enzyme substrate complex), HPU” value worked out at 1.48 mM. Moreover, in assay [5], half-maximal inhibition (IC50) required 1780 ± 60 µM. For the same compound, the “surviving bacteria, pH =1” value was 129 ± 31 CFU/mL in assay [6] (50 μM compound), 25 ± 6 CFU/mL in assay [6] (100 μM compound) and 7 ± 3 CFU/mL in assay [6] (200 μM compound). The “surviving bacteria, pH =7.2” value is recorded as 1.0 ± 0.2 ×10^4 CFU/mL in assay [6] (50 μM compound), 1.3 ± 0.3 ×10^4 CFU/mL in assay [6] (100 μM compound) and 1.2 ± 0.3 ×10^4 CFU/mL in assay [6] (200 μM compound). Besides, the inhibition at 50 µM is 72.7% in assay [6] (setting [8]) and 0% in assay [6] (setting [9]). Besides, the results for the inhibition at 100 µM in assay [6] (setting [8]) and in assay [6] (setting [9]) were 94.7% and 0%, respectively. For the same compound, the figures for the inhibition at 200 µM in assay [6] (setting [8]) and in assay [6] (setting [9]) were 98.5% and 0%, respectively.
